Assay results from patent US20190327974A1, “SYNERGISTS FOR IMPROVED PESTICIDES” (priority 2017, published 2019).
pIC50: −log10 of the molar value. Where two headings read alike, the source gives them in different places.

Columns and labels:
[1] = molecular target: T1, wild-type LcαE7 (αE7 carboxylesterase) (Lucilia cuprina, UniProt Q25252); experiment: Inhibition of wildtype αE7 (competition assay, hydrolysis of 4-nitrophenol butyrate), dose-response curves of FIG. 7; assay type: biochemical; details: 95% confidence interval in brackets; recombinant His6-tagged enzyme from E. coli, 0.5 nM; 4-nitrophenol butyrate 15 μM (= KM); room temperature, pH 7.5, 405 nm; three technical replicates
T1 sequence (Q25252 1-570): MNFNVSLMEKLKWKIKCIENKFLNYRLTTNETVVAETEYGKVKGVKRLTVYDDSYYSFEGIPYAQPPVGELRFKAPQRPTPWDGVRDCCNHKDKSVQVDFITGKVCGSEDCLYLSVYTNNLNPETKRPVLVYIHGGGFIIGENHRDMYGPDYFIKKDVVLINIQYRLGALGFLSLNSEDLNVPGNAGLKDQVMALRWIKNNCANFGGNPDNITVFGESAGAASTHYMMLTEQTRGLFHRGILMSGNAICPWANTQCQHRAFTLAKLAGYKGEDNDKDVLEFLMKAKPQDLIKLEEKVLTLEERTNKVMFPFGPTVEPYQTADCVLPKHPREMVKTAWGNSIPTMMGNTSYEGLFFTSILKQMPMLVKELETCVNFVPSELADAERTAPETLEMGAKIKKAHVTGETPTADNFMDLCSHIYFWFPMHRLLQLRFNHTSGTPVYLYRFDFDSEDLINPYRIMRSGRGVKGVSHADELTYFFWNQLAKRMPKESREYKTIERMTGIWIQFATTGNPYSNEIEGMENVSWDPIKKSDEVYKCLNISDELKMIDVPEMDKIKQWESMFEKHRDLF
Experimental: (§1) FIG. 7 presents dose-response curves for the inhibition of wildtype αE7. Inhibition of the hydrolysis of […] was determined for phenylboronic acid (PBA) and compounds 1-5 and 3.1-3.12. Three (technical) replicate measurements of enzyme activity were performed for each concentration of boronic acid. The concentration of boronic acid required to inhibit 50% of activity (IC50) was determined by fitting a sigmoidal sigmoidal dose-response curve to plots of percentage inhibition. The curve was constrained to 0 (bottom) and 100% (top) inhibition with a variable Hill slope. […]
Wild-type LcαE7 was heterologously expressed in Escherichia coli and purified using metal ion affinity and size exclusion chromatography. The potency of the boronic acids was determined by enzymatic assays of recombinant LcαE7 with the model carboxylester substrate 4-nitrophenol butyrate.
(§2) His6-tagged proteins were expressed in BL21(DE3) E. coli (Invitrogen) at 26° C. for 18 hours. Cells were collected by centrifugation, resuspended in lysis buffer (300 mM NaCl, 10 mM imidazole, 50 mM HEPES pH 7.5) and lysed by sonication. Cell debris was pelleted by centrifugation and the soluble fraction was loaded onto a HisTrap-HP Ni-Sepharose column (GE Healthcare). Bound protein was eluted with lysis buffer supplemented with 300 mM imidazole. Fractions containing the eluted protein were concentrated with a 30 kDa molecular mass cutoff centrifuge concentrator (Amicon) and loaded onto a HiLoad 26/60 Superdex-200 size-exclusion column (GE Healthcare) pre-equilibrated with 150 mM NaCl, 20 mM HEPES pH 7.5. Eluted fractions containing the monomeric protein were pooled for enzyme inhibition assays or crystallization. Protein concentration was determined by measuring the absorbance at 280 nm with an extinction coefficient calculated using the Protparam online server (Gasteiger, E. et al. Protein identification and analysis tools on the ExPASy server. Proteomics Protoc. Handb. 571-607 (2005). doi:10.1385/1-59259-890-0:571).
(§3) Inhibition of wild-type αE7 and the Gly137Asp αE7 variant was determined by a competition assay between the native-substrate analogue 4-nitrophenol butyrate (Sigma) and the boronic acid compounds. Initially, the Michalis constant (KM) with 4-nitrophenol butyrate was measured for both enzymes to determine an appropriate concentration of substrate for use in the competition assays. Formation of the 4-nitrophenolate product of hydrolysis was monitored at 405 nm in the presence of enzyme and eight different concentrations of substrate. 4-nitrophenol butyrate was prepared in methanol to 100 mM and serially diluted 1-in-2 to achieve concentrations from 100 mM to 0.8 mM. Enzyme stocks were prepared in 4 mg/ml bovine serum albumin (Sigma) to maintain enzyme stability. Reactions were prepared by pipetting 178 μl assay buffer (100 mM NaCl, 20 mM HEPES pH 7.5) and 2 μl substrate (final concentrations of 1000 to 8 μM) into 300 μl wells of a 96-well plate. The reaction was initiated by the addition of 20 μl enzyme (final concentration 2.5 nM for wildtype αE7 and 4 nM for Gly137Asp αE7). Product formation was monitored for four minutes at room temperature using an Epoch microplate spectrophotometer (BioTek) and the initial rates of ester hydrolysis were determined by linear regression using GraphPad Prism. The Michalis constant was determined by fitting the initial rates to the Michalis-Menton equation (FIG. 10).
(§4) Enzyme inhibition with the boronic acid compounds was determined by assaying the initial rate of 4-nitrophenol butyrate hydrolysis in the presence of either neat DMSO or the boronic acid compounds in DMSO. Compounds were prepared by serially diluting 1-in-3 an initial 10 mM stock to achieve concentrations from 10 mM to 2 nM. Reactions were prepared by pipetting 178 μl assay buffer supplemented with substrate to a final concentration equal to the KM of the enzyme (15 μM for wildtype αE7 and 250 μM for Gly137Asp αE7) into wells of a 96-well plate. […]

[2] = molecular target: T2, Gly137Asp LcαE7 (Gly137Asp variant of αE7 carboxylesterase) (Lucilia cuprina, UniProt Q25252, G137D); experiment: Inhibition of Gly137Asp αE7 (competition assay, hydrolysis of 4-nitrophenol butyrate), dose-response curves of FIG. 8; assay type: biochemical
T2 construct: GenBank number is of the wild-type parent
Experimental: as §1, with “FIG. 8” for “FIG. 7”, “of Glyl37Asp” for “of wildtype”, “for phenyl boronic” for “for phenylboronic”, “sigmoidal” for “sigmoidal sigmoidal”
as §2, §3
as §4, with “plate. 2 μl neat DMSO or 2 μl serially diluted inhibitor (final concentrations of 100 μM to 20 pM) were added to the wells. The reaction was initiated by the addition of 20 μl enzyme (final concentration 0.5 nM for wildtype αE7 and 10 nM for Glyl37Asp αE7).” for “plate.”

PC3 = experiment: Cell toxicity panel, viability (luminescence); assay type: cell-based, human; details: Readout: Luminescence, read-out: IC50 Viability Cells, Cell line: PC3
Experimental: To further establish the safety and cell toxicity of compounds according to this invention, their IC50 in killing a broad panel of human cell lines (including both cancerous and non-cancerous) cell lines was determined, and their cell toxicity was tested.

T2 sequence (Q25252 entry or part of it G137D): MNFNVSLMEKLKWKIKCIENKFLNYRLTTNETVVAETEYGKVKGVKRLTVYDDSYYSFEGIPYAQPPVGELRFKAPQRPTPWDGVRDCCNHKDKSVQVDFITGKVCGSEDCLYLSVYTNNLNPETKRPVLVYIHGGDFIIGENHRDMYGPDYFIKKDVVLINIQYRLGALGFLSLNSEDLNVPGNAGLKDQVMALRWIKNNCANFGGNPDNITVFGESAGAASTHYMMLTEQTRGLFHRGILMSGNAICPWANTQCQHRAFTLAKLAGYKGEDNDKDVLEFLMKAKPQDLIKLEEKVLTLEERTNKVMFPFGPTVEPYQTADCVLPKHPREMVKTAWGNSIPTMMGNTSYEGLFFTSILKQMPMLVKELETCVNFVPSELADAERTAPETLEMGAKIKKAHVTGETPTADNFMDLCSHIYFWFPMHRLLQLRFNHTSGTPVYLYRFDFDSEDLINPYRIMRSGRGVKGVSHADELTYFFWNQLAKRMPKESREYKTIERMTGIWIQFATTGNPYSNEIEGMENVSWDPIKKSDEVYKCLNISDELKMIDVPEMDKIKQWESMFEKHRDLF

Cc1ccc(B(O)O)cc1Br [Compound 1]
pIC50 [1]: 7.60 | pIC50 [2]: 7.02 | pIC50 (PC3; Homo sapiens, PC-3): < 4.00

Cc1ccc(B(O)O)cc1OCc1ccccc1 [Compound 2]
pIC50 [1]: 8.21 | pIC50 [2]: 7.24 | pIC50 (PC3; Homo sapiens, PC-3): 4.31

OB(O)c1cc(Br)cc(N2CCOCC2)c1 [Compound 3.1]
pIC50 [1]: 8.82 | pIC50 [2]: 6.08 | pIC50 (PC3): < 4.00

OB(O)c1cc(Br)cc(N2CCCCC2)c1 [Compound 3.3]
pIC50 [1]: 9.01 | pIC50 [2]: 6.54

CN1CCN(c2cc(Br)cc(B(O)O)c2)CC1 [Compound 3.4]
pIC50 [1]: 8.11 | pIC50 [2]: 5.70

OB(O)c1cc(Br)cc2c1OCC2 [Compound 3.5]
pIC50 [1]: 8.14 | pIC50 [2]: 6.07

OB(O)c1cc(Br)c2ccccc2c1F [Compound 3.6]
pIC50 [1]: 7.89 | pIC50 [2]: 6.85

CC(C)Oc1cc(Br)cc(B(O)O)c1 [Compound 3.7, 3-Bromo-5-isopropoxyphenylboronic acid]
pIC50 [1]: 9.21 | pIC50 [2]: 6.82

OB(O)c1cc(Br)cc(OC(F)(F)F)c1 [Compound 3.8]
pIC50 [1]: 8.38 | pIC50 [2]: 6.68

OB(O)c1cc(Br)cc(OCc2ccccc2)c1 [Compound 3.9]
pIC50 [1]: 9.04 | pIC50 (PC3; Homo sapiens, PC-3): < 4.00

OB(O)c1cc(Br)cc(Oc2ccccc2)c1 [Compound 3.10, 3-Bromo-5-phenoxyfenylboronic acid]
pIC50 [1]: 9.04

O=C(c1cc(Cl)cc(B(O)O)c1)N1CCOCC1 [Compound 3.11]
pIC50 [1]: 7.92 | pIC50 [2]: 5.70

CC(C)(C)Oc1ccc(B(O)O)cc1Br [Compound 3.12]
pIC50 [1]: 7.60 | pIC50 [2]: 5.72

OB(O)c1cc(Br)cc(N2CCCC2)c1 [Compound 3]
pIC50 [1]: 9.28 | pIC50 [2]: 6.66 | pIC50 (PC3; Homo sapiens, PC-3): < 4.00

OB(O)c1ccc2ccccc2c1 [Compound 4]
pIC50 [1]: 7.82 | pIC50 [2]: 6.43 | pIC50 (PC3; Homo sapiens, PC-3): < 4.00

OB(O)c1ccc(OCc2ccccc2F)c(Cl)c1 [Compound 5, 3-Chloro-4(2′-fluorobenzyloxy) phenylboronic acid]
pIC50 [1]: 7.65 | pIC50 [2]: 6.49 | pIC50 (PC3; Homo sapiens, PC-3): 4.08

OB(O)c1ccccc1 [PBA, phenylboronic acid, reference compound]
pIC50 [1]: 6.37 | pIC50 [2]: 6.06
